Reference: patent publication US20230159532A1, “PARATHYROID HORMONE (PTH) RECEPTOR ANTAGONISTS AND USES THEREOF” (Crinetics Pharmaceuticals, Inc., priority 2021, published 2023)

target: T1, human PTHR1 receptor (Homo sapiens, UniProt Q03431); assay: Competitive antagonist binding assay for hPTH-R1 (radioactive competition binding, SPA beads); details: human PTHR1 membranes, [125I]-[Nle8,18,Tyr34]-PTH(1-34) 0.2 nM, 90 minutes at room temperature; read-out: hPTHR1 Ki
T1 construct: purchased Eurofins HTS030M
T1 sequence (Q03431 27-593): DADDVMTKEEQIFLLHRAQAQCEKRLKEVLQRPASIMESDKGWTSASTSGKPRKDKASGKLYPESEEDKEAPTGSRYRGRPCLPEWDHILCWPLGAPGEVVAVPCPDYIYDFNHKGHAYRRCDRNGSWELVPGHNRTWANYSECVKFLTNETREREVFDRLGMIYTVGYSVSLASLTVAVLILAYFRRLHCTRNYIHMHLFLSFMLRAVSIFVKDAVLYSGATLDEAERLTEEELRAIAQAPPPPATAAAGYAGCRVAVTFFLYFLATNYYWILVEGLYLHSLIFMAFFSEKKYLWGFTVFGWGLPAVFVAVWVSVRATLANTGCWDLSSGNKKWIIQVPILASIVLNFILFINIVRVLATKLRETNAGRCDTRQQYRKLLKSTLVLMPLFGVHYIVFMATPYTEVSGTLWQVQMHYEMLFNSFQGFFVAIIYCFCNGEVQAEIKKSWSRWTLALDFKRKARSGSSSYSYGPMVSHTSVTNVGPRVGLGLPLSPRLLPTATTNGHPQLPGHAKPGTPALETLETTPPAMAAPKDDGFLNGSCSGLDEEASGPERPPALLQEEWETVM
How it was run: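 Human PTHR1 membranes on SPA beads incubated 90 min at room temperature with compound (typically 0-10,000 nM final) and 0.2 nM [125I]-[Nle8,18,Tyr34]-PTH(1-34) in HEPES buffer with MgCl2, CaCl2, BSA, Triton X-100 and protease inhibitors, pH 7.4. Scintillation signal read; Ki values derived.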

Row | SMILES | Ki [nM]
1 | CCN1C(=O)N(c2c(F)cc(NCCNCCS(=O)(=O)O)cc2F)c2cc(C#N)ccc2-c2cc(Cl)cnc21 [1-141, 2-({2-[(4-{4-chloro-13-cyano-8-ethyl-9-oxo-6,8,10-triazatricyclo[9.4.0.0^2,7]pentadeca-1(11),2(7),3,5,12,14-hexaen-10-yl}-3,5-difluorophenyl)amino]ethyl}amino)ethane-1-sulfonic acid] | < 100
2 | CCN1C(=O)N(c2c(F)cc(NCCNCCO)cc2F)c2ccccc2-c2cc(Cl)cnc21 [1-142, 4-chloro-10-[2,6-difluoro-4-({2-[(2-hydroxyethyl)amino]ethyl}amino)phenyl]-8-ethyl-6,8,10-triazatricyclo[9.4.0.0^2,7]pentadeca-1(11),2(7),3,5,12,14-hexaen-9-one] | < 100
3 | CCN1C(=O)N(c2c(F)cc(N3CCCNCC3)cc2F)c2cc(C#N)ccc2-c2cc(Cl)cnc21 [1-143, 4-chloro-10-[4-(1,4-diazepan-1-yl)-2,6-difluorophenyl]-8-ethyl-9-oxo-6,8,10-triazatricyclo[9.4.0.0^2,7]pentadeca-1(11),2(7),3,5,12,14-hexaene-13-carbonitrile] | < 100
4 | CCN1C(=O)N(c2c(F)cc(N3CCN(CCO)CC3)cc2F)c2cc(C#N)ccc2-c2cc(Cl)cnc21 [1-144, 4-chloro-10-{2,6-difluoro-4-[4-(2-hydroxyethyl)piperazin-1-yl]phenyl}-8-ethyl-9-oxo-6,8,10-triazatricyclo[9.4.0.0^2,7]pentadeca-1(11),2(7),3,5,12,14-hexaene-13-carbonitrile] | < 100
5 | CCN1C(=O)N(c2c(F)cc(NCC3CNC3)cc2F)c2cc(C#N)ccc2-c2cc(Cl)cnc21 [1-145, 10-(4-{[(azetidin-3-yl)methyl]amino}-2,6-difluorophenyl)-4-chloro-8-ethyl-9-oxo-6,8,10-triazatricyclo[9.4.0.0^2,7]pentadeca-1(11),2(7),3,5,12,14-hexaene-13-carbonitrile] | < 100
6 | CCN1C(=O)N(c2c(F)cc(N(C)CCNC)cc2F)c2cc(C#N)ccc2-c2cc(Cl)cnc21 [1-146, 4-chloro-10-(2,6-difluoro-4-{methyl[2-(methylamino)ethyl]amino}phenyl)-8-ethyl-9-oxo-6,8,10-triazatricyclo[9.4.0.0^2,7]pentadeca-1(11),2(7),3,5,12,14-hexaene-13-carbonitrile] | < 100
7 | CCN1C(=O)N(c2c(F)cc(NC[C@H]3COCCN3)cc2F)c2cc(C#N)ccc2-c2cc(Cl)cnc21 [1-147, 4-chloro-10-[2,6-difluoro-4-({[(3S)-morpholin-3-yl]methyl}amino)phenyl]-8-ethyl-9-oxo-6,8,10-triazatricyclo[9.4.0.0^2,7]pentadeca-1(11),2(7),3,5,12,14-hexaene-13-carbonitrile] | < 100
8 | CCN1C(=O)N(c2c(F)cc(NCCN3CCOCC3)cc2F)c2cc(C#N)ccc2-c2cc(Cl)cnc21 [1-148, 4-chloro-10-(2,6-difluoro-4-{[2-(morpholin-4-yl)ethyl]amino}phenyl)-8-ethyl-9-oxo-6,8,10-triazatricyclo[9.4.0.0^2,7]pentadeca-1(11),2(7),3,5,12,14-hexaene-13-carbonitrile] | 100 to 1000
9 | CCN1C(=O)N(c2c(F)cc(NCCNC(C)CO)cc2F)c2cc(C#N)ccc2-c2cc(Cl)cnc21 (stereo not shown) [1-149, 4-chloro-10-[2,6-difluoro-4-({2-[(1-hydroxypropan-2-yl)amino]ethyl}amino)phenyl]-8-ethyl-9-oxo-6,8,10-triazatricyclo[9.4.0.0^2,7]pentadeca-1(11),2(7),3,5,12,14-hexaene-13-carbonitrile] | < 100
10 | CCN1C(=O)N(c2c(F)cc(NCCNCCNS(C)(=O)=O)cc2F)c2cc(C#N)ccc2-c2cc(Cl)cnc21 [1-150, N-[2-({2-[(4-{4-chloro-13-cyano-8-ethyl-9-oxo-6,8,10-triazatricyclo[9.4.0.0^2,7]pentadeca-1(11),2(7),3,5,12,14-hexaen-10-yl}-3,5-difluorophenyl)amino]ethyl}amino)ethyl]methanesulfonamide] | < 100
11 | CCN1C(=O)N(c2c(F)cc(NC[C@@H]3COCCN3)cc2F)c2cc(C#N)ccc2-c2cc(Cl)cnc21 [1-151, 4-chloro-10-[2,6-difluoro-4-({[(3R)-morpholin-3-yl]methyl}amino)phenyl]-8-ethyl-9-oxo-6,8,10-triazatricyclo[9.4.0.0^2,7]pentadeca-1(11),2(7),3,5,12,14-hexaene-13-carbonitrile] | < 100
12 | CCN1C(=O)N(c2c(F)cc(N3CCN[C@H](CO)C3)cc2F)c2cc(C#N)ccc2-c2cc(Cl)cnc21 [1-152, 4-chloro-10-{2,6-difluoro-4-[(3S)-3-(hydroxymethyl)piperazin-1-yl]phenyl}-8-ethyl-9-oxo-6,8,10-triazatricyclo[9.4.0.0^2,7]pentadeca-1(11),2(7),3,5,12,14-hexaene-13-carbonitrile] | 100 to 1000
13 | CCN1C(=O)N(c2c(F)cc(N3CCN[C@@H](CO)C3)cc2F)c2cc(C#N)ccc2-c2cc(Cl)cnc21 [1-153, 4-chloro-10-{2,6-difluoro-4-[(3R)-3-(hydroxymethyl)piperazin-1-yl]phenyl}-8-ethyl-9-oxo-6,8,10-triazatricyclo[9.4.0.0^2,7]pentadeca-1(11),2(7),3,5,12,14-hexaene-13-carbonitrile] | < 100

Continued, values first:

Row | Ki [nM] | SMILES
14 | < 100 | CCN1C(=O)N(c2c(F)cc(NCCNCCC#N)cc2F)c2cc(C#N)ccc2-c2cc(Cl)cnc21 [1-154, 4-chloro-10-[4-({2-[(2-cyanoethyl)amino]ethyl}amino)-2,6-difluorophenyl]-8-ethyl-9-oxo-6,8,10-triazatricyclo[9.4.0.0^2,7]pentadeca-1(11),2(7),3,5,12,14-hexaene-13-carbonitrile]
15 | < 100 | CCN1C(=O)N(c2c(F)cc(NCCN3CCNCC3)cc2F)c2cc(C#N)ccc2-c2cc(Cl)cnc21 [1-155, 4-chloro-10-(2,6-difluoro-4-{[2-(piperazin-1-yl)ethyl]amino}phenyl)-8-ethyl-9-oxo-6,8,10-triazatricyclo[9.4.0.0^2,7]pentadeca-1(11),2(7),3,5,12,14-hexaene-13-carbonitrile]
16 | < 100 | CCN1C(=O)N(c2c(F)cc(NCCNCC(O)CO)cc2F)c2cc(C#N)ccc2-c2cc(Cl)cnc21 (stereo not shown) [1-156, 4-chloro-10-[4-({2-[(2,3-dihydroxypropyl)amino]ethyl}amino)-2,6-difluorophenyl]-8-ethyl-9-oxo-6,8,10-triazatricyclo[9.4.0.0^2,7]pentadeca-1(11),2(7),3,5,12,14-hexaene-13-carbonitrile]
17 | < 100 | CCN1C(=O)N(c2c(F)cc(NCCNC(CO)CO)cc2F)c2cc(C#N)ccc2-c2cc(Cl)cnc21 [1-157, 4-chloro-10-[4-({2-[(1,3-dihydroxypropan-2-yl)amino]ethyl}amino)-2,6-difluorophenyl]-8-ethyl-9-oxo-6,8,10-triazatricyclo[9.4.0.0^2,7]pentadeca-1(11),2(7),3,5,12,14-hexaene-13-carbonitrile]
18 | 100 to 1000 | CCN1C(=O)N(c2c(F)cc(NCC3(CO)CNC3)cc2F)c2cc(C#N)ccc2-c2cc(Cl)cnc21 [1-158, 4-chloro-10-[2,6-difluoro-4-({[3-(hydroxymethyl)azetidin-3-yl]methyl}amino)phenyl]-8-ethyl-9-oxo-6,8,10-triazatricyclo[9.4.0.0^2,7]pentadeca-1(11),2(7),3,5,12,14-hexaene-13-carbonitrile]
19 | < 100 | CCN1C(=O)N(c2c(F)cc(N[C@H](C)CNC)cc2F)c2cc(C#N)ccc2-c2cc(Cl)cnc21 [1-159, 4-chloro-10-(2,6-difluoro-4-{[(2R)-1-(methylamino)propan-2-yl]amino}phenyl)-8-ethyl-9-oxo-6,8,10-triazatricyclo[9.4.0.0^2,7]pentadeca-1(11),2(7),3,5,12,14-hexaene-13-carbonitrile]
20 | 100 to 1000 | CCN1C(=O)N(c2c(F)cc(NCCNCC#N)cc2F)c2cc(C#N)ccc2-c2cc(Cl)cnc21 [1-160, 4-chloro-10-[4-({2-[(cyanomethyl)amino]ethyl}amino)-2,6-difluorophenyl]-8-ethyl-9-oxo-6,8,10-triazatricyclo[9.4.0.0^2,7]pentadeca-1(11),2(7),3,5,12,14-hexaene-13-carbonitrile]
21 | < 100 | CCN1C(=O)N(c2c(F)cc(NCCNCCC(N)=O)cc2F)c2cc(C#N)ccc2-c2cc(Cl)cnc21 [1-161, 3-({2-[(4-{4-chloro-13-cyano-8-ethyl-9-oxo-6,8,10-triazatricyclo[9.4.0.0^2,7]pentadeca-1(11),2(7),3,5,12,14-hexaen-10-yl}-3,5-difluorophenyl)amino]ethyl}amino)propanamide]
22 | < 100 | CCN1C(=O)N(c2c(F)cc(NCCNCC(N)=O)cc2F)c2cc(C#N)ccc2-c2cc(Cl)cnc21 [1-162, 2-({2-[(4-{4-chloro-13-cyano-8-ethyl-9-oxo-6,8,10-triazatricyclo[9.4.0.0^2,7]pentadeca-1(11),2(7),3,5,12,14-hexaen-10-yl}-3,5-difluorophenyl)amino]ethyl}amino)acetamide]
